Assay results as given in a compilation of properties of binary mixtures (doi:10.1016/j.molliq.2022.119758).

Test: xn = mol fraction of the nth substance listed
Conditions: 101 kPa

O=C1CCCO1 + CCC[N+]1(C)CCCC1.O=S(=O)([N-]S(=O)(=O)C(F)(F)F)C(F)(F)F
viscosity (278.15 K, x2 = 0): 2.56 mPa·s
viscosity (298.15 K, x2 = 0): 1.859 mPa·s
viscosity (308.15 K, x2 = 0): 1.641 mPa·s
viscosity (328.15 K, x2 = 0): 1.242 mPa·s
viscosity (338.15 K, x2 = 0): 1.106 mPa·s
viscosity (358.15 K, x2 = 0): 0.894 mPa·s

CCC[N+]1(C)CCCC1.O=S(=O)([N-]S(=O)(=O)C(F)(F)F)C(F)(F)F + O=C1CCCO1
viscosity (278.15 K, x1 = 0.1741): 6.97 mPa·s
viscosity (278.15 K, x1 = 0.3874): 16.24 mPa·s
viscosity (288.15 K, x1 = 0.0657): 3.14 mPa·s
viscosity (288.15 K, x1 = 0.3874): 11.87 mPa·s
viscosity (288.15 K, x1 = 1): 96.2 mPa·s
viscosity (298.15 K, x1 = 0.0657): 2.65 mPa·s
viscosity (298.15 K, x1 = 0.1741): 4.45 mPa·s
viscosity (298.15 K, x1 = 0.3874): 9.04 mPa·s
viscosity (298.15 K, x1 = 1): 60.6 mPa·s
viscosity (308.15 K, x1 = 0.0657): 2.296 mPa·s
viscosity (308.15 K, x1 = 0.1741): 3.67 mPa·s
viscosity (308.15 K, x1 = 0.3874): 7.09 mPa·s
viscosity (308.15 K, x1 = 1): 40.8 mPa·s
viscosity (318.15 K, x1 = 0.0657): 1.951 mPa·s
viscosity (318.15 K, x1 = 0.1741): 3.08 mPa·s
viscosity (318.15 K, x1 = 0.3874): 5.71 mPa·s
viscosity (318.15 K, x1 = 1): 28.9 mPa·s
viscosity (328.15 K, x1 = 0.0657): 1.694 mPa·s
viscosity (328.15 K, x1 = 0.3874): 4.7 mPa·s
viscosity (328.15 K, x1 = 1): 21.3 mPa·s
viscosity (338.15 K, x1 = 0.3874): 3.95 mPa·s
viscosity (338.15 K, x1 = 1): 16.29 mPa·s
viscosity (348.15 K, x1 = 0.0657): 1.328 mPa·s
viscosity (348.15 K, x1 = 0.3874): 3.37 mPa·s
viscosity (348.15 K, x1 = 1): 12.82 mPa·s
viscosity (358.15 K, x1 = 0.0657): 1.191 mPa·s
viscosity (358.15 K, x1 = 0.3874): 2.92 mPa·s
